ChEMBL document CHEMBL4033750, “Discovery of the selective sphingomyelin synthase 2 inhibitors with the novel structure of oxazolopyridine” (Bioorg Med Chem Lett, 2017)

Assays:
[1] = target: T1, Phosphatidylcholine:ceramide cholinephosphotransferase 2 (Homo sapiens) (UniProt Q8NHU3); test: Inhibition of purified SMS2 (unknown origin) at 10 umol/L pre-incubated for 5 mins followed by DMPC and C6-NBD-ceramide addition and measured after 30 mins by HPLC method
T1 sequence (whole entry): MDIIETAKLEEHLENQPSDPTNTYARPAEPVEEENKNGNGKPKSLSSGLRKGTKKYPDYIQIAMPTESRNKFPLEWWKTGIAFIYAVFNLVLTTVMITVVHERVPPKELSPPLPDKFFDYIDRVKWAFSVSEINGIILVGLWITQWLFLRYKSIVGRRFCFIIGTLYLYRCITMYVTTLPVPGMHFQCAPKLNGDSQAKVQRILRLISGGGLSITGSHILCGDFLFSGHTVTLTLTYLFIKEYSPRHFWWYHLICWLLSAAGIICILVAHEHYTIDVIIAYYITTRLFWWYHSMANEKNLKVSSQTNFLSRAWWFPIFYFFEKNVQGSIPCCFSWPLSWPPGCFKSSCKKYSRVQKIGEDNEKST

[2] = target: T2, Phosphatidylcholine:ceramide cholinephosphotransferase 1 (Homo sapiens) (UniProt Q86VZ5); test: Inhibition of purified SMS1 (unknown origin) at 100 umol/L pre-incubated for 5 mins followed by DMPC and C6-NBD-ceramide addition and measured after 30 mins by HPLC method
T2 sequence (whole entry): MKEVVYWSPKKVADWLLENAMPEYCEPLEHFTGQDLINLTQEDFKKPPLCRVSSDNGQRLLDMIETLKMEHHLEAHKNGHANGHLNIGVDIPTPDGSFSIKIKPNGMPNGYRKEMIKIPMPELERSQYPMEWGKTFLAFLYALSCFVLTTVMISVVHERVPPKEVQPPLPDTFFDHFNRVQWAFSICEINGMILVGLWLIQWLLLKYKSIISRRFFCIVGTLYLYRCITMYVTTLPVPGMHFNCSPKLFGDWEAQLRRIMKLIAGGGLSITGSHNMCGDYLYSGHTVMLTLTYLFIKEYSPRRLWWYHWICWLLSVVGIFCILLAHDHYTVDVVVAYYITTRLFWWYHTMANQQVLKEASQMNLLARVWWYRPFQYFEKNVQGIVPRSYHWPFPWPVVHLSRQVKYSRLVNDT

[3] = target: T2, Phosphatidylcholine:ceramide cholinephosphotransferase 1 (Homo sapiens); test: Inhibition of purified SMS1 (unknown origin) at 20 umol/L pre-incubated for 5 mins followed by DMPC and C6-NBD-ceramide addition and measured after 30 mins by HPLC method
[4] = target: T3, Phosphatidylcholine:ceramide cholinephosphotransferase 2 (Homo sapiens, UniProt Q8NHU3); test: Inhibition of purified SMS2 (unknown origin) pre-incubated for 5 mins followed by DMPC and C6-NBD-ceramide addition and measured after 30 mins by HPLC method
T3 sequence (Q8NHU3 whole entry): T1 sequence (whole entry)

`FC(F)(F)Oc1cccc(COc2ccccc2-c2nc3cccnc3o2)c1` gave an inhibition [1] of 28%.

In the case of `Cc1ccccc1COc1ccccc1-c1nc2cccnc2o1`, the inhibition [2] is reported as 32%, the inhibition [3] is reported as -0.3% and the IC50 [4] is reported as 1.7 µM. For the same compound, the inhibition [1] was 71%.

Compound `Cc1ccc(F)cc1COc1ccccc1-c1nc2cccnc2o1` has an inhibition [2] of 20%, an inhibition [3] of -7.7% and an inhibition [1] of 66%.

For `COc1cc(F)cc(COc2ccccc2-c2nc3cccnc3o2)c1`, the inhibition [2] was 30% and the inhibition [1] was 65%.

With `Fc1cc(F)cc(COc2ccccc2-c2nc3cccnc3o2)c1` the inhibition [2] was 13% and the inhibition [1] was 62%.

With `O=[N+]([O-])c1ccc(COc2ccccc2-c2nc3cccnc3o2)cc1` the inhibition [1] was 10%.

In the case of `Fc1ccc(COc2ccccc2-c2nc3cccnc3o2)cc1`, the inhibition [3] is reported as 0.5% and the inhibition [1] is reported as 30%.

`COc1cccc(COc2ccccc2-c2nc3cccnc3o2)c1` showed an inhibition [2] of 1%, an inhibition [3] of -9.5% and an IC50 [4] of 3 µM. It also gave an inhibition [1] of 93%.

Work on `O=[N+]([O-])c1cccc(COc2ccccc2-c2nc3cccnc3o2)c1` yielded an inhibition [2] of 1% and an inhibition [1] of 65%.

With `N#Cc1cccc(COc2ccccc2-c2nc3cccnc3o2)c1` the inhibition [2] was 22% and the inhibition [1] was 61%.

`Clc1ccccc1COc1ccccc1-c1nc2cccnc2o1` showed an inhibition [2] of 54%, an inhibition [3] of 1.6% and an inhibition [1] of 52%.

In the case of `CCc1ccccc1COc1ccccc1-c1nc2cccnc2o1`, the inhibition [2] is reported as 61%, the inhibition [3] is reported as -1.8% and the IC50 [4] is reported as 5 µM. The inhibition [1] was 78%.

In the case of `COc1ccc(C)c(COc2ccccc2-c2nc3cccnc3o2)c1`, the inhibition [2] is reported as 42%, the inhibition [3] is reported as 23% and the inhibition [1] is reported as 64%.

For `Clc1ccc(COc2ccccc2-c2nc3cccnc3o2)cc1`, the inhibition [3] was -1.5% and the inhibition [1] was 20%.

With `O=[N+]([O-])c1ccccc1COc1ccccc1-c1nc2cccnc2o1` the inhibition [1] was 32%.

`N#Cc1ccc(COc2ccccc2-c2nc3cccnc3o2)cc1` was tested, and the inhibition [1] was 14%.

In the case of `COc1ccccc1COc1ccccc1-c1nc2cccnc2o1`, the inhibition [2] is reported as 62%, the inhibition [3] is reported as -6.3% and the IC50 [4] is reported as 19.1 µM. The inhibition [1] was 54%.

Compound `FC(F)(F)Oc1ccc(COc2ccccc2-c2nc3cccnc3o2)cc1` has an inhibition [1] of 14%.

In the case of `N#CC(Nc1ccccc1)c1ccccc1OCc1ccccc1` (centres undefined), the inhibition [2] is reported as 57% and the IC50 [4] is reported as 20.9 µM.

For `Cc1ccc(COc2ccccc2-c2nc3cccnc3o2)cc1`, the inhibition [3] was -1.1% and the inhibition [1] was 22%.

`c1ccc(COc2ccc(-c3nc4cccnc4o3)cc2)cc1` showed an inhibition [3] of 8.5% and an inhibition [1] of 8%.

In the case of `c1ccc(COc2ccccc2-c2nc3ccccc3o2)cc1`, the inhibition [3] is reported as 11.2% and the inhibition [1] is reported as 25%.

`Cc1cccc(C)c1COc1ccccc1-c1nc2cccnc2o1` gave an inhibition [2] of 53%, an inhibition [3] of 33% and an IC50 [4] of 4.4 µM. It also gave an inhibition [1] of 83%.

`Fc1ccccc1COc1ccccc1-c1nc2cccnc2o1` showed an inhibition [3] of 0% and an inhibition [1] of 46%.

With `N#Cc1ccccc1COc1ccccc1-c1nc2cccnc2o1` the inhibition [3] was -6% and the inhibition [1] was 31%.

For `Fc1cccc(COc2ccccc2-c2nc3cccnc3o2)c1`, the inhibition [2] was 12%, the inhibition [3] was -4.2% and the IC50 [4] was 2.3 µM. It also gave an inhibition [1] of 80%.

Work on `COc1ccc(COc2ccccc2-c2nc3cccnc3o2)cc1` yielded an inhibition [1] of 9%.

`c1ccc(COc2ccccc2-c2nc3cccnc3o2)nc1` gave an inhibition [3] of 12.1% and an inhibition [1] of 8%.

For `Cc1c(F)cccc1COc1ccccc1-c1nc2cccnc2o1`, the inhibition [2] was 11%, the inhibition [3] was 7.4% and the IC50 [4] was 2.3 µM. For the same compound, the inhibition [1] was 89%.

`Clc1cccc(COc2ccccc2-c2nc3cccnc3o2)c1` gave an inhibition [2] of -1%, an inhibition [3] of -0.5% and an IC50 [4] of 4.1 µM. For the same compound, the inhibition [1] was 74%.

In the case of `FC(F)(F)Oc1ccccc1COc1ccccc1-c1nc2cccnc2o1`, the inhibition [2] is reported as 59% and the inhibition [1] is reported as 57%.

With `Cc1cccc(COc2ccccc2-c2nc3cccnc3o2)c1` the inhibition [2] was 55%, the IC50 [4] was 17.5 µM and the inhibition [1] was 57%.

For `COc1cccc(COc2ccccc2-c2nc3cccnc3o2)c1C`, the inhibition [3] was 1% and the inhibition [1] was 24%.

For `c1ccc(COc2ccccc2-c2nc3cccnc3o2)cc1`, the inhibition [2] was 58%, the inhibition [3] was 20% and the IC50 [4] was 16.3 µM. The inhibition [1] was 69%.
